Results taken from patent publication US20240148821A1, “PHARMACEUTICAL USE OF CYCLIC PEPTIDE COMPOUND” (CHUGAI SEIYAKU KABUSHIKI KAISHA, priority 2021, published 2024).
Numbered stars: 1 amine (or outer) side, 2 acyl side, 3 side chain; on linkers, the order of the positions; unused ones are H or OH. Bridge positions count the residues as written; N and C are the ends. Square brackets hold non-standard residues; d marks the D form. Peptide text beside a SMILES is read from it. * marks the point of attachment. hPhe(3-Cl-4-CF3) = N[C@@H](CCc1ccc(C(F)(F)F)c(Cl)c1)C(=O)O; hPhe(3-F,4-CF3) = N[C@@H](CCc1ccc(C(F)(F)F)c(F)c1)C(=O)O; hPhe(4-CF3) = N[C@@H](CCc1ccc(C(F)(F)F)cc1)C(=O)O; NEtPhe(4-Me) = CCN[C@@H](Cc1ccc(C)cc1)C(=O)O; NMeAbu(4,4,4-F3) = CN[C@@H](CC(F)(F)F)C(=O)O; NMePhe(4-Cl) = CN[C@@H](Cc1ccc(Cl)cc1)C(=O)O; X3 = O=C(CN(C1CC2(C1)CC(F)(F)C2)[*:1])[*:2]; NMedβ3hAla = C[C@H](CC(=O)[*:2])N(C)[*:1]; NMeNva(5,5-F2) = CN[C@@H](CCC(F)F)C(=O)O; NMeGly(cPent) = CN[C@H](C(=O)O)C1CCCC1; NMe3Pal = CN[C@@H](Cc1cccnc1)C(=O)O; NMeCha = CN[C@@H](CC1CCCCC1)C(=O)O; Hyp = O=C(O)[C@@H]1C[C@@H](O)CN1; NEtLeu = CCN[C@@H](CC(C)C)C(=O)O; NMeChg = CN[C@H](C(=O)O)C1CCCCC1; NMeI = CC[C@H](C)[C@H](NC)C(=O)O; NMeD = CN[C@@H](CC(=O)O)C(=O)O; AllylGly = C=CC[C@H](N)C(=O)O; NMeL = CN[C@@H](CC(C)C)C(=O)O; NMeV = CN[C@H](C(=O)O)C(C)C; d(β3hA) = C[C@@H](N)CC(=O)O; NMeC = CN[C@@H](CS)C(=O)O; NMeS = CN[C@@H](CO)C(=O)O; Morpholide = C1CN(*)CCO1; NMeA = CN[C@@H](C)C(=O)O; NMeAib = CNC(C)(C)C(=O)O; Piperidide = C1CCN(*)CC1; Pyrrolidide = C1CCN(*)C1; Ac5c = NC1(C(=O)O)CCCC1; Aze = O=C(O)[C@@H]1CCN1; Aib = CC(C)(N)C(=O)O; Cyclopropyl = C1CC1*; Sar = CNCC(=O)O

Key:
[1] = biological target: protein-protein interaction between Kras and SOS1 (biotin-tagged human Kras loaded with GDP, His-tagged human SOS1) (Homo sapiens (Human), UniProt P01116, G12D); test: Protein-protein interaction inhibition between Kras and SOS1 (KrasG12D-SOS PPI) using AlphaScreen; format: biochemical; settings: AlphaScreen; biotin-tagged human Kras loaded with GDP, His-tagged human SOS1; read-out: KRAS G12D-SOS PPI IC50;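 also: kras produced in E. coli, Ni-coupled donor beads and streptavidin acceptor beads, excitation 680 nm with emission detected at 520–620 nm via singlet oxygen transfer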
[2] = system: Human pancreatic cancer cell line AsPC-1 (G12D mutation Kras); test: AsPC-1 cell growth inhibition (AsPC-1 CGI); format: cell-based; settings: read-out: AsPC-1 cell growth inhibition, 50% growth inhibitory concentration (IC50 value); 96 hours, CellTiter-Glo, values classified in ranges
Experimental: Test compounds were serially dilated with dimethyl sulfoxide, and 200 nL was then dispensed to a U-bottom 96-well plate using Labcyte Echo. […] The cell suspension was dispensed to a. plate containing a test compound at 100 μL per well and incubated at 37° C. in a 5% carbon dioxide gas incubator. 96 hours later, 80 μL of CellTiter-Glo (Promega) was added to each well and fluorescence was measured.

| SMILES | IC50 [1] [µM] | IC50 [2] [µM] |
| --- | --- | --- |
| CC[C@H](C)[C@@H]1NC(=O)[C@H](CC(C)C)N(C)C(=O)C[C@@H](C(=O)N2CCCCC2)N(C)C(=O)[C@H](C2CCCCC2)N(C)C(=O)C2(CCCC2)NC(=O)CN(C2CC3(C2)CC(F)(F)C3)C(=O)[C@H](CCc2ccc(C(F)(F)F)c(Cl)c2)NC(=O)CN(C)C(=O)[C@H](CC2CCCCC2)N(C)C(=O)CN(C)C(=O)CN(C)C1=O [Compound 2035, (11S,17S,26S,29S,33S,36S)-11-[2-[3-chloro-4-(trifluoromethyl)phenyl]ethyl]-36-cyclohexyl-17-(cyclohexylmethyl)-9-(2,2-difluorospiro[3.3]heptan-6-yl)-29-isobutyl-15,18,21,24,30,34,37-heptamethyl-26-[(1S)-1-methylpropyl]-33-(piperidine,-1-carbonyl)-6,9,12,15,18,21,24,27,30,34,37-undecazaspiro[4.33]octatriacontane-7,10,13,16,19,22,25,28,31,35,38-undecone] ([NMeL]I[Sar][Sar][NMeCha][Sar][hPhe(3-Cl-4-CF3)][X3][Ac5c][NMeChg][NMeD]-Piperidide; lactam N-11) | 0.024 | > 0.5 |
| CC[C@H](C)[C@@H]1NC(=O)[C@H](C)N(C)C(=O)C[C@@H](C)N(C)C(=O)[C@H](CC(C)C)NC(=O)C(C)(C)N(C)C(=O)[C@H](CC(C)C)NC(=O)[C@H](CCc2ccc(C(F)(F)F)c(Cl)c2)NC(=O)CN(C)C(=O)[C@H](CC2CCCCC2)N(C)C(=O)CN(C)C(=O)CN(C)C1=O [Compound 1380] (cyclo(I[Sar][Sar][NMeCha][Sar][hPhe(3-Cl-4-CF3)]L[NMeAib]L[NMedβ3hAla][NMeA])) | 0.016 | > 0.5 |
| CC(C)C[C@H]1C(=O)N[C@@H](COC2CC2)C(=O)N(C)[C@@H](C)C(=O)N2CC[C@H]2C(=O)N(C)[C@@H](CC2CCCCC2)C(=O)N(C)CC(=O)N[C@@H](CCc2ccc(C(F)(F)F)c(Cl)c2)C(=O)N2CCC[C@H]2C(=O)NC2(CCCC2)C(=O)N(C)[C@@H](C(C)C)C(=O)N(C)[C@H](C(=O)N2CCCCC2)CC(=O)N1C [Compound 1811] ([NMeL]S(Cyclopropyl)[NMeA][Aze][NMeCha][Sar][hPhe(3-Cl-4-CF3)]P[Ac5c][NMeV][NMeD]-Piperidide; lactam N-11) | 0.056 | > 0.5 |
| CC[C@H](C)[C@@H]1NC(=O)[C@H](CC(C)C)N(CC)C(=O)C[C@@H](C(=O)N2CCOCC2)N(C)C(=O)[C@H](C2CCCC2)N(C)C(=O)C2(CCCC2)NC(=O)[C@@H]2CCCN2C(=O)[C@H](CCc2ccc(C(F)(F)F)c(Cl)c2)NC(=O)CN(C)C(=O)[C@H](C2CCCC2)N(C)C(=O)[C@@H]2CCN2C(=O)[C@H](C)N(C)C1=O [Compound 1208] ([NEtLeu]I[NMeA][Aze][NMeGly(cPent)][Sar][hPhe(3-Cl-4-CF3)]P[Ac5c][NMeGly(cPent)][NMeD]-Morpholide; lactam N-11) | 0.00069 | ≤ 0.02 |
| CCO[C@@H]1C[C@H]2C(=O)NC3(CCCC3)C(=O)N(C)[C@@H](C3CCCCC3)C(=O)N(C)[C@H](C(=O)N3CCCC3)CC(=O)N(C)[C@@H](CC(F)(F)F)C(=O)N[C@@H]([C@@H](C)CC)C(=O)N(C)CC(=O)N(C)CC(=O)N(C)[C@@H](CC3CCCCC3)C(=O)N(C)CC(=O)N[C@@H](CCc3ccc(C(F)(F)F)c(Cl)c3)C(=O)N2C1 [Compound 1369] ([NMeAbu(4,4,4-F3)]I[Sar][Sar][NMeCha][Sar][hPhe(3-Cl-4-CF3)][Hyp](Et)[Ac5c][NMeChg][NMeD]-Pyrrolidide; lactam N-11) | 0.00055 | ≤ 0.02 |
| CC[C@H](C)[C@@H]1NC(=O)[C@H](C)N(C)C(=O)C[C@@H](C)NC(=O)[C@H](CC(C)C)N(C)C(=O)C(C)(C)NC(=O)[C@H](CC(C)C)N(C)C(=O)[C@H](CCc2ccc(C(F)(F)F)cc2)NC(=O)CN(C)C(=O)[C@H](Cc2ccc(Cl)cc2)N(C)C(=O)CN(C)C(=O)CN(C)C1=O [Compound 788] (cyclo([Aib][NMeL][d(β3hA)][NMeA]I[Sar][Sar][NMePhe(4-Cl)][Sar][hPhe(4-CF3)][NMeL])) | 0.013 | > 0.5 |
| CC[C@H](C)[C@@H]1NC(=O)[C@H](CC(C)C)N(C)C(=O)C[C@@H](C(=O)N2CCCCC2)N(C)C(=O)[C@H](CCC(F)F)N(C)C(=O)C2(CCCC2)NC(=O)[C@@H]2CCCN2C(=O)[C@H](CCc2ccc(C(F)(F)F)c(Cl)c2)NC(=O)CN(C)C(=O)[C@H](CC2CCCCC2)N(C)C(=O)[C@@H]2CCN2C(=O)[C@H](C)N(C)C1=O [Compound 1660] ([NMeL]I[NMeA][Aze][NMeCha][Sar][hPhe(3-Cl-4-CF3)]P[Ac5c][NMeNva(5,5-F2)][NMeD]-Piperidide; lactam N-11) | 0.016 | > 0.5 |
| CC[C@H](C)[C@@H]1NC(=O)[C@H](CC(C)C)N(C)C(=O)C[C@@H](C(=O)N(C)C)N(C)C(=O)[C@H](C2CCCC2)N(C)C(=O)C2(CCCC2)NC(=O)[C@@H]2CCCN2C(=O)[C@H](CCc2ccc(C(F)(F)F)c(F)c2)NC(=O)CN(C)C(=O)[C@H](CC2CCCCC2)N(C)C(=O)[C@@H]2CCN2C(=O)[C@H](C)N(C)C1=O [Compound 334] ([NMeL]I[NMeA][Aze][NMeCha][Sar][hPhe(3-F,4-CF3)]P[Ac5c][NMeGly(cPent)][NMeD]-NMe2; lactam N-11) | 0.0005 | ≤ 0.02 |
| CC[C@H](C)[C@@H]1NC(=O)[C@H](CC(C)C)N(C)C(=O)C[C@@H](C)N(C)C(=O)[C@H](C2CCCCC2)N(C)C(=O)C2(CCCC2)NC(=O)[C@H](Cc2cccnc2)N(C)C(=O)[C@H](CCc2ccc(C(F)(F)F)c(Cl)c2)NC(=O)CN(C)C(=O)[C@H](CC2CCCCC2)N(C)C(=O)CN(C)C(=O)CN(C)C1=O [Compound 1849] (cyclo([Ac5c][NMeChg][NMedβ3hAla][NMeL]I[Sar][Sar][NMeCha][Sar][hPhe(3-Cl-4-CF3)][NMe3Pal])) | 0.23 | > 0.5 |
| CC[C@H](C)[C@@H]1NC(=O)[C@H](CC(C)C)N(C)C(=O)C[C@@H](C(=O)N(C)C)N(C)C(=O)[C@H]([C@@H](C)CC)N(C)C(=O)C2(CCCC2)NC(=O)[C@@H]2CCCN2C(=O)[C@H](CCc2ccc(C(F)(F)F)c(Cl)c2)NC(=O)CN(C)C(=O)[C@H](Cc2ccc(C)cc2)N(CC)C(=O)[C@@H]2CCN2C(=O)[C@H](C)N(C)C1=O [Compound 866] ([NMeL]I[NMeA][Aze][NEtPhe(4-Me)][Sar][hPhe(3-Cl-4-CF3)]P[Ac5c][NMeI][NMeD]-NMe2; lactam N-11) | 0.0012 | ≤ 0.02 |
| CC[C@H](C)[C@@H]1NC(=O)[C@H](CC(C)C)N(C)C(=O)C[C@@H](C(=O)N2CCCCC2)N(C)C(=O)[C@H](COC)N(C)C(=O)C2(CCCC2)NC(=O)[C@@H]2CCCN2C(=O)[C@H](CCc2ccc(C(F)(F)F)c(Cl)c2)NC(=O)CN(C)C(=O)[C@H](CC2CCCCC2)N(C)C(=O)[C@@H]2CCN2C(=O)[C@H](C)N(C)C1=O [Compound 484] ([NMeL]I[NMeA][Aze][NMeCha][Sar][hPhe(3-Cl-4-CF3)]P[Ac5c][NMeS](Me)[NMeD]-Piperidide; lactam N-11) | 0.11 | > 0.5 |
| CC[C@H](C)[C@@H]1NC(=O)[C@H](CC(C)C)N(C)C(=O)C[C@@H](C(=O)N2CCOCC2)N(C)C(=O)[C@H](C2CCCC2)N(C)C(=O)C2(CCCC2)NC(=O)[C@@H]2CCCN2C(=O)[C@H](CCc2ccc(C(F)(F)F)c(F)c2)NC(=O)CN(C)C(=O)[C@H](CC2CCCCC2)N(C)C(=O)[C@@H]2CCN2C(=O)[C@H](C)N(C)C1=O [Compound 390] ([NMeL]I[NMeA][Aze][NMeCha][Sar][hPhe(3-F,4-CF3)]P[Ac5c][NMeGly(cPent)][NMeD]-Morpholide; lactam N-11) | 0.00077 | ≤ 0.02 |
| CC[C@H](C)[C@@H]1NC(=O)[C@H](CC(C)C)N(C)C(=O)C[C@@H](C(=O)N2CCCCC2)N(C)C(=O)[C@H](C(C)C)N(C)C(=O)C2(CCCC2)NC(=O)[C@@H]2CCCN2C(=O)[C@H](CCc2ccc(C(F)(F)F)c(F)c2)NC(=O)CN(C)C(=O)[C@H](CC2CCCCC2)N(C)C(=O)CN(C)C(=O)[C@@H]2CCN2C1=O [Compound 139] ([NMeL]I[Aze][Sar][NMeCha][Sar][hPhe(3-F,4-CF3)]P[Ac5c][NMeV][NMeD]-Piperidide; lactam N-11) | 0.0084 | > 0.5 |
| C=CC[C@@H]1NC(=O)[C@H](CC(C)C)N(C)C(=O)C[C@@H](C(=O)N2CCCCC2)N(C)C(=O)[C@H](C(C)C)N(C)C(=O)C2(CCCC2)NC(=O)[C@@H]2CCCN2C(=O)[C@H](CCc2ccc(C(F)(F)F)c(Cl)c2)NC(=O)CN(C)C(=O)[C@H](CC2CCCCC2)N(C)C(=O)[C@@H]2CCN2C(=O)[C@H](C)N(C)C1=O [Compound 745] ([NMeL][AllylGly][NMeA][Aze][NMeCha][Sar][hPhe(3-Cl-4-CF3)]P[Ac5c][NMeV][NMeD]-Piperidide; lactam N-11) | 0.029 | > 0.5 |
| CC[C@H](C)[C@@H]1NC(=O)CSC[C@@H](C(=O)N(C)C)N(C)C(=O)[C@H](C2CCCC2)N(C)C(=O)C2(CCCC2)NC(=O)[C@@H]2CCCN2C(=O)[C@H](CCc2ccc(C(F)(F)F)c(Cl)c2)NC(=O)CN(C)C(=O)[C@H](CC2CCCCC2)N(C)C(=O)CN(C)C(=O)CN(C)C1=O [Compound 2172, (3S,9S,18S,24R,27S,33S)-18-[(2S)-butan-2-yl]-3-[2-[3-chloro-4-(trifluoromethyl)phenyl]ethyl]-9-(cyclohexylmethyl)-27-cyclopentyl-N,N,7,10,13,16,25,28-octamethyl-2,5,8,11,14,17,20,26,29,32-decaoxospiro[22-thia-1,4,7,10,13,16,19,25,28,31-decazabicyclo[31.3.0]hexatriacontane-30,1′-cyclopentane]-24-carboxamide] ({CH2CO}-I[Sar][Sar][NMeCha][Sar][hPhe(3-Cl-4-CF3)]P[Ac5c][NMeGly(cPent)][NMeC]-NMe2; thioether N-10) | 0.014 | > 0.5 |
